Measured values taken from US7579349B2, “4-(pyrazol-3-ylamino) pyrimidine derivatives for use in the treatment of cancer” (AstraZeneca AB, priority 2003, dated 2009).

Test system: murine fibroblasts (NIH3T3) over-expressing human IGF-1 receptor
Assay: Inhibition of IGF-stimulated cell proliferation (BrdU incorporation), Test (c)
Format: cell-based
Details: inhibition of IGF-stimulated proliferation in NIH3T3 over-expressing human IGF-1 receptor
Protocol: c) Inhibition of IGF-stimulated Cell Proliferation
The construction of murine fibroblasts (NIH3T3) over-expressing human IGF-1 receptor has been described by Lammers et al (EMBO J, 8, 1369-1375, 1989). These cells show a proliferative response to IGF-I which can be measured by BrdU incorporation into newly synthesised DNA. Compound potency was determined as causing inhibition of the IGF-stimulated proliferation in the following assay:
Compounds are initially dissolved in DMSO to 10 mM, followed by dilutions in DMEM+1% FCS+glutamine to give a range from […] in 1-0.00045% DMSO final concentration in assay well.
Exponentially growing NIH3T3/IGFR cells were harvested and seeded in complete growth medium into a flat-bottomed 96 well tissue culture grade plate (Costar 3525) at 1.2×10^4 cells per well in a volume of 100 μl.
Growth medium was carefully removed from each well using a multi-channel pipette. Wells were carefully rinsed three times with 200 μl with HBSS. 100 μl of starvation medium was added to each well and the plate was re-incubated for 24 hours.
50 μl of a 4× concentrate of test compound was added to appropriate wells. Cells were incubated for 30 minutes with compound alone before the addition of IGF. For cells treated with IGF, an appropriate volume (i.e. 25 μl) of starvation medium was added to make a final volume per well up to 200 μl followed by 25 μl of IGF-1 at 160 ng/ml (to give a final concentration of 20 ng/ml). […] The plate was re-incubated for 20 hours.
The incorporation of BrdU in the cells (after a 4 h incorporation period) was assessed using the BrdU Cell Proliferation Elisa according to the manufacturer's protocol.

| Compound | IC50 (Mus musculus) | IC50 |
| --- | --- | --- |
| Cc1cc(Nc2cc(C(F)(F)F)nc(N3CCCC3c3cc(-c4ccccn4)no3)n2)n[nH]1 (stereo not shown) [Example 35, 4-(5-Methyl-1H-pyrazol-3-ylamino)-2-{2-[3-(pyrid-2-yl)isoxazol-5-yl]pyrrolidin-1-yl}-6-trifluoromethylpyrimidine] | 0.56 µM | – |
| Cc1cc(Nc2nc(N3CCC[C@H]3c3cc(-c4nccs4)no3)ncc2Cl)n[nH]1 [Example 38, S-5-Chloro-2-{2-[3-(thiazol-2-yl)isoxazol-5-yl]pyrrolidin-1-yl}-4-(5-methyl-1H-pyrazol-3-ylamino)pyrimidine] | – | 0.054 µM |
| Clc1cnc(N2CCCC2c2cc(C3CC3)no2)nc1Nc1cc(C2CC2)[nH]n1 (stereo not shown) [Example 5, 5-Chloro-2-[2-(3-cyclopropylisoxazol-5-yl]pyrrolidin-1-yl]-4-(5-cvlopropyl-1H-pyrazol-3-ylamino)phyrimidine] | – | 0.13 µM |
| Cc1cc(Nc2ccnc(N3CCCC3c3cc(-c4ccccn4)no3)n2)n[nH]1 (stereo not shown) [Example 23, 4-(5-Methyl-1H-pyrazol-3-ylamino)-2-{2-[3-(pyrid-2-yl)isoxazol-5-yl]pyrrolidin-1-yl}pyrimidine] | 0.11 µM | – |
